# Measured values: US20160374944A1, “COMPOSITIONS AND METHODS FOR TREATING AND PREVENTING CANCER BY TARGETING AND INHIBITING CANCER STEM CELLS” (priority 2011, published 2016)
# Tests used:
# [1] = system: TCF/LEF activity in pancreatic CSCs; assay: TCF/LEF responsive reporter; type: cell-based, human
# Procedure: (A) Pancreatic CSCs were treated with EGCG (0-60 μM) for 48 h. At the end of incubation period, the expression of Snail, ZEB1 and Slug was measured by q-RT-PCR. […] (B) Transwell migration assay. Pancreatic CSCs were plated in the top chamber of the transwell and treated with EGCG (0-60 μM) for 24 h. Cells migrated to the lower chambered were fixed with methanol, stained with crystal violet and counted. […] (C) Matrigel invasion assay. CSCs were plated onto the Matrigel-coated membrane in the top chamber of the transwell and treated with EGCG (0-60 μM) for 48 h. Cells invaded to the lower chambered were fixed with methanol, stained with crystal violet and counted. […] (D) Effects of EGCG on TCF-1/LEF activity. […] Transduced CSCs were treated with EGCG (0-60) for 48 h and the GFP fluorescence was measured. […] Cell viability was measured by trypan blue assay. […] At the end of incubation period, colonies were counted. […] Cells invaded to the lower chambered were fixed with methanol, stained with crystal violet and counted. […] Cells migrated to the lower chambered were fixed with methanol, stained with crystal violet and counted. […] Apoptosis was measured by TUNEL assay. […] Transduced CSCs were treated with EGCG (40 μM) with or without quercetin (20 μM) for 48 hrs and the luciferase activity was measured.
# [2] = system: Gli1 and Gli2 in pancreatic CSCs; assay: nuclear translocation of Gli1 and Gli2 (immunostaining); type: cell-based, human; details: EGCG 40 or 60 μM, 24 h
# Procedure: Pancreatic CSCs were treated with or without EGCG (40 or 60 μM) for 24 h. At the end of incubation period, CSCs were fixed with paraformaldehyde, permeabilized with titron X100, and blocked with 5% normal goat serum. Cells were then treated with either anti-Gli1 or anti-Gli2 antibody, followed by secondary antibody plus DAPI. Stained cells were mounted and visualized under a fluorescence microscope. Blue fluorescence of DAPI was changed to red color for a better contrast.
# Prostate CSCs = assay: spheroid formation and cell viability in spheroids (trypan blue); type: cell-based, human; details: 7 and 14 days, embelin 0-6 μM, rottlerin 0-2 μM
# Procedure: (§1) In particular, embelin is shown to inhibit spheroid and colony formation, and induce caspase-3 and apoptosis. (A) Prostate CSCs were grown in CSC medium and treated with embelin (0-6 μM) for 7 days to obtain primary spheroids. At the end of incubation period, spheroids were collected, reseeded and treated with embelin for another week to obtain secondary spheroids. Cell viability in spheroids was measured by trypan blue assay at the end of 7 and 14 days. […] (B) Prostate CSCs were seeded in soft agar and treated with embelin (0-6 μM) for 21 days. […] (C and D) Activation of caspase-3 and induction of apoptosis is shown.
# as §1, with “(A)” for “In particular, embelin is shown to inhibit spheroid and colony formation, and induce caspase-3 and apoptosis. (A)”, “rottlerin (0-2” for “embelin (0-6”, “rottlerin” for “embelin”, “apoptosis.” for “apoptosis is shown.”
# The effects of embelin on growth of prostate CSCs was studied by measuring cell viability and colony formation, as shown in FIGS. 9A and 9B. […]
# [3] = system: Notch reporter activity in prostate CSCs; assay: Notch-responsive dual luciferase reporter; type: cell-based, human; details: rottlerin 0-2 μM, 24 h, dual luciferase assay
# Procedure: FIG. 17 graphs showing the regulation of Shh, Notch and TGFβ pathways by rottlerin. […] The expression of Patched-1, Patched-2, SMO, Gli1 and Gli2 was measured by qRT-PCR. […] Data were normalized with GAPDH. (D) Prostate CSCs were treated with rottlerin (0-1 μM) for 24 h. The expression of Notch1, Notch3 and JAG1 was measured by qRT-PCR. (E) TCF/LEF-1, Gli and Notch reporter activities. Prostate CSCs were transduced with a mixture of TCF/LEF1-, Gli-, or Notch-responsive firefly luciferase construct and Renilla luciferase construct (40:1) along with lipofectamine. After transduction, medium was changed and CSCs were treated with rottlerin (0-2 μM) for 24 h. […] (F) Immunofluorescence analysis of Gli1 and Gli2 expression in prostate CSCs. Green=Gli1 or Gli2; red=nucleus.
# Pancreatic CSCs = details: NOD/SCID/IL2R gamma mice, 20 mg/kg, 6 weeks
# Procedure: (A) Pancreatic CSCs were orthotopically implanted in pancreas of NSG mice, and treated with or without sulforaphane 20 mg/kg, for 6 weeks, (B and C) Pancreatic CSCs were xenografted sub-cutaneously in NSG mice, and treated with or without rottlerin and embelin 20 mg/kg, for 6 weeks, (D and E) Prostate CSCs were xenografted sub-cutaneously in NSG mice, and treated with or without rottlerin and embelin 20 mg/kg, for 6 weeks. At the end of the treatment, weights of tumors in treated mice were compared with control mice.
compound,measurement,setting,value
"O=C(O[C@@H]1Cc2c(O)cc(O)cc2O[C@@H]1c1cc(O)c(O)c(O)c1)c1cc(O)c(O)c(O)c1 [EGCG, epigallocatechin gallate]",TCF/LEF activity,"[1]; EGCG 0-60, 48 h",inhibited TCF/LEF activity
same,TCF/LEF transcriptional activity,"[1]; EGCG 40 μM with or without quercetin 20 μM, 48 hrs, luciferase",inhibited
same,nuclear expression of Gli1 protein,[2],inhibited the nuclear expression
same,nuclear expression of Gli2 protein,[2],inhibited the nuclear expression
CC(=O)c1c(O)c(C)c(O)c(Cc2c(O)c3c(c(C(=O)/C=C/c4ccccc4)c2O)OC(C)(C)C=C3)c1O [rottlerin],size of primary and secondary spheroids in suspension,Prostate CSCs; data not shown,inhibited the size
same,cell viability in spheroids,"Prostate CSCs; primary and secondary spheroids, trypan blue",inhibited
same,Notch responsive reporter activity,[3],"inhibited the TCF/LEF1, Gli1 and Notch responsive reporter activities in a dose-dependent manner"
C[S+]([O-])CCCCN=C=S (centres unmarked) [sulforaphane],tumor growth (weights of tumors vs control mice),Pancreatic CSCs,inhibit tumor growth
